# From US20250213547A1, “METHODS OF TREATING NEUROLOGICAL DISEASES” (priority 2022, published 2025)
# Values joined by “and” are separate entries in the source; they are usually repeats but may differ in a detail not shown here. Identical values can stand only once. Like-named read-outs stand apart in the source and are kept apart here.
# Assay: Healthy Japanese subjects, Part 2 (100, 200, 300 mg BID up-titration): PK of TAK-935 and M-I
# Type: in vivo, human
# Details: for AUlast/D (dose-normalized): mean (% CV); for Cmax: read-out: Cmax; for Vd/F: read-out: Vz/F
# Method: This study consisted of 2 parts, and was a randomized, double-blind, placebo-controlled study to assess safety, tolerability, and PK and PD of TAK-935 when administered orally in healthy Japanese subjects.
# TAK-935 or placebo was administered to the 9 subjects at the dose of 100 mg BID from Day 1 to Day 7, then 200 mg BID from Day 8 to Day 14, and finally 300 mg BID from Day 15 to Day 21, and safety, PK and PD were investigated. The planned dose levels of TAK-935 to be evaluated are outlined in Table 40a.
# After the screening visit, eligible participants checked—in on Day-2. On Day 1, eligible participants were randomized 6:3 to TAK-935 or placebo in double-blinded fashion. No stratification variables were used for randomization. Study drug was administered every day by oral administration of multiple dosing with up-titration of TAK-935 to 9 subjects firstly at 100 mg BID from Day 1 to Day 7, then at 200 mg BID from Day 8 to Day 14, and finally at 300 mg BID from Day 15 to Day 21, successively. The subjects were discharged on Day 24. Intensive PK samplings were performed on Day 1, Day 7, Day 14 and Day 21.
# Subjects received multiple oral doses of TAK-935 or placebo escalating from 100 mg BID, 200 mg BID, and then to 300 mg BID with 150 mL of water for 7 days per each dose level. For the morning dose, subjects were kept fasted for at least 8 hours before administration and up to 2 hours after administration. The evening dose was administered at any time between 8 hours and 12 hours after the morning dose, but prior to the evening meal except for Days 1, 7, 14, and 21. On Days 1, 7, 14, and 21, the evening dose was administered 12 hours after the morning dose and prior to the evening meal. • Identity of Study Drugs • Study drug refers to TAK-935 100 mg tablet and matching placebo. • Compound: Code name: TAK-935 • Dosage forms: TAK-935 100 mg tablets and matching placebo tablets were used in this study. The TAK-935 tablets and placebo tablets were yellow-red film-coated tablets for oral administration.
# Blood samples for PK analysis of TAK-935 and its metabolites (M-I) were collected into blood collection tubes (vacutainer) containing the anticoagulant K2EDTA (Table 40e and Table 40f).
# The PK parameters of TAK-935 and its metabolites (M-I) were determined from the concentration-time profiles for all evaluable subjects. Actual sampling times, rather than scheduled sampling times, were used in all computations involving sampling times. The following PK parameters were calculated from plasma concentrations of TAK-935 and its metabolites (M-I), unless otherwise specified: […]
# [1] = Day 1 (100 mg BID), Part 2, Median
# [2] = Day 1, TAK-935 100 mg BID, plasma, mean
# [3] = Day 7 (100 mg BID), Part 2, Median
# [4] = Day 7, TAK-935 100 mg BID, plasma, mean
# [5] = Day 14 (200 mg BID), Part 2, Median
# [6] = Day 14, TAK-935 200 mg BID, plasma, mean
# [7] = Day 21 (300 mg BID), Part 2, Median
# [8] = Day 21, TAK-935 300 mg BID, plasma, mean
# [9] = human, plasma, oral, 100 mg, Day 1 (100 mg BID), Part 2, Median
# [10] = human, plasma, oral, 100 mg, Day 1, TAK-935 100 mg BID, plasma, mean
smiles,measurement,setting,value
O=C(c1cccnc1-c1ccncc1)N1CCC(O)(Cc2ccccc2)CC1 [soticlestat],CL/F,[1],501.5 L/H
same,Lambda z,[1],0.2135 h⁻¹
same,T1/2z,[1],3.275 h
same,CL/F,[2],451.8 L/h
same,Lambda z,[2],0.2042 h⁻¹
same,CL/F,[3],443.0 L/H
same,Lambda z,[3],0.2180 h⁻¹
same,T1/2z,[3],3.270 h
same,CL/F,[4],551.8 L/h
same,Lambda z,[4],0.2325 h⁻¹
same,AUlast/D (dose-normalized),"Day 7, TAK-935 100 mg BID, plasma",2.238 (49.3) h*ng/mL/mg
same,CL/F,[5],254.0 L/H
same,Lambda z,[5],0.2685 h⁻¹
same,T1/2z,[5],2.575 h
same,CL/F,[6],276.7 L/h and 276.4 L/h
same,Lambda z,[6],0.2775 h⁻¹
same,AUlast/D (dose-normalized),"Day 14, TAK-935 200 mg BID, plasma",4.298 (44.9) h*ng/mL/mg
same,CL/F,[7],147.0 L/H
same,Lambda z,[7],0.3095 h⁻¹
same,T1/2z,[7],2.240 h
same,CL/F,[8],158.0 L/h
same,Lambda z,[8],0.2708 h⁻¹
same,AUlast/D (dose-normalized),"Day 21, TAK-935 300 mg BID, plasma",6.725 (25.2) h*ng/mL/mg
same,Mean t1/2z,"TAK-935, Day 1, 100 mg BID",5.988 h
same,Mean t1/2z,"TAK-935, Day 7, 100 mg BID",3.630 h
same,Mean t1/2z,"TAK-935, Day 14, 200 mg BID",2.620 h
same,Mean t1/2z,"TAK-935, Day 21, 300 mg BID",2.927 h
same,accumulation of Cmax and AUC,"TAK-935, multiple dose administration",< 6%
same,AUC,"human, plasma, oral, 100 mg, Day 1 (100 mg BID), Part 2, Geo Mean, read-out: AUC1ast",209 ng·h/mL
same,AUC,"human, plasma, oral, 100 mg, Day 1 (100 mg BID), Part 2, Geo Mean, read-out: AUCtau",209 ng·h/mL
same,Cmax,"human, plasma, oral, 100 mg, Day 1 (100 mg BID), Part 2, Geo Mean",201 ng/mL
same,Tmax,"human, plasma, oral, 100 mg, Day 1 (100 mg BID), Part 2, Mean, read-out: Tmax",0.875 h
same,AUC,"human, plasma, oral, 100 mg, Day 1 (100 mg BID), Part 2, Median, read-out: AUC1ast",160 ng·h/mL
same,AUC,"human, plasma, oral, 100 mg, Day 1 (100 mg BID), Part 2, Median, read-out: AUCtau",160 ng·h/mL
same,Cmax,[9],146 ng/mL
same,Vd/F,[9],2450 L
same,AUC(0-t),[10],232 ng·h/mL
same,AUC,"human, plasma, oral, 100 mg, Day 1, TAK-935 100 mg BID, plasma, mean, read-out: AUCτ (AUC during a dosing interval)",232 ng·h/mL
same,Cmax,[10],255 ng/mL
same,Vd/F,[10],4100 L
same,half-life,"human, plasma, oral, 100 mg, Day 1, TAK-935 100 mg BID, plasma, mean, read-out: t1/2z (terminal disposition phase half-life) (converted)",5.99 h
same,Tmax,"human, plasma, oral, 100 mg, Day 1, TAK-935 100 mg BID, plasma, median, read-out: tmax",0.75 h
same,AUC,"human, plasma, oral, 100 mg, Day 7 (100 mg BID), Part 2, Geo Mean, read-out: AUC1ast",201 ng·h/mL
same,AUC,"human, plasma, oral, 100 mg, Day 7 (100 mg BID), Part 2, Geo Mean, read-out: AUCtau",202 ng·h/mL
same,Cmax,"human, plasma, oral, 100 mg, Day 7 (100 mg BID), Part 2, Geo Mean",146 ng/mL
same,Tmax,"human, plasma, oral, 100 mg, Day 7 (100 mg BID), Part 2, Mean, read-out: Tmax",0.833 h
same,AUC,"human, plasma, oral, 100 mg, Day 7 (100 mg BID), Part 2, Median, read-out: AUC1ast",226 ng·h/mL
